Where two headings read alike, the source gives them in different places.
Key:
SARS-CoV-2 (WA-1) [1] = assay: Antiviral immunofluorescence assay, SARS-CoV-2 WA1 in Vero-TMPRSS2 cells; type: cell-based; settings: for EC50: Severe acute respiratory syndrome coronavirus 2, Vero/TMPRSS2; for EC90: Severe acute respiratory syndrome coronavirus 2, WA-1, Vero-TMPRSS2 cells, immunofluorescence, 38 hpi
in vitro [2] = settings: human
in vitro [3] = settings: chlorocebus aethiops
Protocol: Cells were seeded as per SARS-CoV-2 infection studies in opaque walled 96-well cell culture plates and incubated overnight for Huh7.5 and Vero-TMPRSS2 cells and for an additional 24h for Calu-3 cells. Compounds or controls were added at the indicated concentrations. Cells were incubated for 48h for Huh7.5 cells, 40–44h for Calu-3 cells, or 30–32h for Vero-TMPRSS2 cells at 37 °C and 5% CO2, an equal volume of CellTiter-Glo reagent (Cat. #G7570, Promega) or CellTiter-Glo 2.0 reagent (Cat. #G9241, Promega) was added and mixed, and luminescence was recorded on a Veritas Microplate Luminometer (Turner BioSystems) according to manufacturer recommendations. Percent viability was calculated compared to DMSO controls, and CC50 values were calculated using Prism 9.
Calu-3 cells were treated for 44h (A), Huh7.5 cells were treated for 48h (B), and Vero-
TMPRSS2 cells were treated for 38h (C) as in infection assays for each cell type. Cell viability
was measured by CellTiter-Glo assay and reported as % cell viability relative to DMSO controls.
Best fit curves calculated in Graphpad Prism 9 were used
to compute cytotoxic concentration 50% (CC50) values in Tables 1-3.

SARS-CoV-2 (WA-1) [4] = assay: Antiviral immunofluorescence assay, SARS-CoV-2 WA1 in Huh7.5 cells; type: cell-based
[5] = tested on: SARS-CoV-2 WA1 (USA-WA1/2020); assay: Antiviral immunofluorescence assay, SARS-CoV-2 WA1 in Calu-3 cells; type: cell-based; settings: immunofluorescence, 44 hpi, mean ± SD; for EC90: Severe acute respiratory syndrome coronavirus 2
in vitro [6] = settings: human; remark: listed apart in the source
in vitro [7] = settings: human; remark: listed apart in the source
SARS-CoV-2 (WA-1) [8] = assay: Antiviral immunofluorescence assay, SARS-CoV-2 WA1 in human pluripotent stem cell-derived lung cells; type: cell-based; settings: Severe acute respiratory syndrome coronavirus 2, WA-1, PSC-lung cells (ALDA 31616 and H9), 24 hpi
[9] = tested on: SARS-CoV-2 B.1.1.7 (Alpha); assay: microbe, parasite or virus in culture; type: cell-based; settings: Severe acute respiratory syndrome coronavirus 2, Calu-3
Calu-3 cells = settings: human, 44 h
[10] = hamster, in vivo; cited from earlier work
[11] = tested on: SARS-CoV-2 B.1.617.2 (Delta); assay: microbe, parasite or virus in culture; type: cell-based; settings: Severe acute respiratory syndrome coronavirus 2, Calu-3
SARS-CoV-2 (WA-1) [12] = tested on: SARS-CoV-2 (WA-1); design: method as in PMID 34310217; settings: Huh7.5 cells; read-out: EC50, inhibition of SARS-CoV-2 replication; cited from earlier work
[13] = tested on: SARS-CoV-2 B.1.351 (Beta); assay: microbe, parasite or virus in culture; type: cell-based; settings: Severe acute respiratory syndrome coronavirus 2, Calu-3
SARS-CoV-2 P.1 (Gamma) = assay: microbe, parasite or virus in culture; type: cell-based; settings: Severe acute respiratory syndrome coronavirus 2, Calu-3
[14] = tested on: SARS-CoV-2 BA.1 (Omicron); assay: microbe, parasite or virus in culture; type: cell-based; settings: Severe acute respiratory syndrome coronavirus 2, Calu-3
[15] = Severe acute respiratory syndrome coronavirus 2, WA-1, Huh7.5 cells, immunofluorescence, 48 hpi, read-out: EC50
[16] = Severe acute respiratory syndrome coronavirus 2, WA-1, Huh7.5 cells, immunofluorescence, 48 hpi, read-out: EC90
[17] = Severe acute respiratory syndrome coronavirus 2, Calu-3, WA1, Calu-3 cells, read-out: EC50
[18] = Severe acute respiratory syndrome coronavirus 2, Huh7.5

SMILES | EC50 (SARS-CoV-2 (WA-1) [1]) | EC90 (SARS-CoV-2 (WA-1) [1]) | CC50 at 24 h (in vitro [2]) | CC50 (in vitro [3]) | EC50 (SARS-CoV-2 (WA-1) [4]; [15]) | EC90 (SARS-CoV-2 (WA-1) [4]; [16]) | EC50 [5, 17] | EC90 ([5]; WA1, Calu-3 cells) | CC50 at 44 h (in vitro [6]) | CC50 at 48 h (in vitro [7]) | EC50 (SARS-CoV-2 (WA-1) [8]) | EC90 (SARS-CoV-2 (WA-1) [8]) | further results
CCCCCCCCCCCCCCCCCCOC[C@H](COP(=O)(O)OC[C@H]1O[C@@](C#N)(c2ccc3c(N)ncnn23)[C@H](O)[C@@H]1O)OCc1ccc(OC)c(F)c1 [Compound 9g, ((2R,3S,4R,5R)-5-(4-Aminopyrrolo[2,1-f][1,2,4]triazin-7-yl)-5-cyano-3,4-dihydroxytetrahydrofuran-2-yl)methyl ((R)-2-((3-fluoro-4-methoxybenzyl)oxy)-3-(octadecyloxy)propyl) hydrogen phosphate] | 178 ± 57 nM | 294 ± 62 nM | > 20000 nM | > 100000 nM | 60 ± 37 nM | 212 ± 86 nM | 77 ± 27 nM | 145 ± 54 nM | 50500 nM | 70100 nM | 167 ± 55 nM | 348 ± 121 nM | –
CCCCCCCCCCCCCCCCOC[C@H](COP(=O)(O)OC[C@H]1O[C@@](C#N)(c2ccc3c(N)ncnn23)[C@H](O)[C@@H]1O)OCc1ccc(OC)c(F)c1 [Compound 11g, ((2R,3S,4R,5R)-5-(4-Aminopyrrolo[2,1-f][1,2,4]triazin-7-yl)-5-cyano-3,4-dihydroxytetrahydrofuran-2-yl)methyl ((R)-2-((3-fluoro-4-methoxybenzyl)oxy)-3-(hexadecyloxy)propyl) hydrogen phosphate] | 406 ± 87 nM | 858 ± 249 nM | > 20000 nM | > 100000 nM | 50 ± 22 nM | 103 ± 47 nM | 51 ± 18 nM | 240 ± 131 nM | 75700 nM | 59000 nM | 130 ± 56 nM | 267 ± 19 nM | –
CCCCCCCCCCCCCCOC[C@H](COP(=O)(O)OC[C@H]1O[C@@](C#N)(c2ccc3c(N)ncnn23)[C@H](O)[C@@H]1O)OCc1ccccc1 [Compound 12a, ((2R,3S,4R,5R)-5-(4-Aminopyrrolo[2,1-f][1,2,4]triazin-7-yl)-5-cyano-3,4-dihydroxytetrahydrofuran-2-yl)methyl ((R)-2-(benzyloxy)-3-(tetradecyloxy)propyl) hydrogen phosphate] | 909 ± 27 nM | 1630 ± 120 nM | – | > 100000 nM | – | – | 213 ± 97 nM | 575 ± 251 nM | > 100000 nM | > 100000 nM | – | – | EC50 (SARS-CoV-2 (WA-1) [4]; [18]): 157 ± 400 nM; EC90 (SARS-CoV-2 (WA-1) [4]; [18]): 479 ± 19 nM
CCCCCCCCCCCCCCCCCCOC[C@H](COP(=O)(O)OC[C@H]1O[C@@](C#N)(c2ccc3c(N)ncnn23)[C@H](O)[C@@H]1O)OCc1ccccc1 [Compound V2043, 1-O-octadecyl-2-O-benzyl-sn-glyceryl-phospho-RVn] | 216 ± 38 nM | 403 ± 128 nM | > 20000 nM | – | 140 ± 63 nM | 424 ± 267 nM | – | 323 ± 157 nM | 58300 nM | – | 382 ± 205 nM | 736 ± 267 nM | EC50 [9]: 146 ± 95 nM; EC90 [9]: 517 ± 169 nM; CC50 (Calu-3 cells): 58300 nM; oral bioavailability [10]: orally bioavailable; EC50 [11]: 85 ± 24 nM; EC90 [11]: 484 ± 457 nM; CC50 at 38 h (in vitro [3]): 97900 nM; EC50 (SARS-CoV-2 (WA-1) [12]): 138 nM; EC50 [13]: 146 ± 104 nM; EC90 [13]: 645 ± 459 nM; EC50 ([5]; Severe acute respiratory syndrome coronavirus 2, Calu-3, WA1, Calu-3 cells): 138 nM; EC50 ([5]; WA1, Calu-3 cells, read-out: EC50): 136 ± 56 nM; EC50 (SARS-CoV-2 P.1 (Gamma)): 167 ± 84 nM; EC90 (SARS-CoV-2 P.1 (Gamma)): 362 ± 42 nM; EC50 [14]: 44 ± 12 nM; EC90 [14]: 359 ± 447 nM
